# BindingDB's records for doi:10.1021/acschembio.5b00291 (Ujf-Embl-Cnrs, 2015)
# Columns and labels:
# Experiment in all cases: Isothermal Titration Calorimetry (ITC)
# Settings in all cases: pH 8; 25 °C
# [1] = target: Leucine--tRNA ligase [A132I,E138V,K510E,I952T] (Candida albicans (strain WO-1), UniProt A0A1D8PS12, A132I/E138V/I952T/K510E)
# Method: (§1) ITC was performed using LeuRS CP1 domain wild-type, K510E mutant, or K510A mutant against AN2690-AMP at 25 °C by an ITC200 system (MicroCal, GE Healthcare). Wildtype protein and mutants were dialyzed against the titration buffer (50 mM HEPES-KOH, 30 mM KCl and 30 mM MgCl2, pH 8.0). Compound AN2690 and AMP were also prepared in the same buffer. A 60 μM protein solution was in the presence of 10 mM AMP in the calorimetric cell and titrated using 26 stepwise injections of 1.5 μL each with the compound AN2690 plus AMP. AN2690 solutions were placed in the syringe at 0.7 to 3 mM (depending on the expected affinity) along with 10 mM AMP. The heat generated after each ligand injection was measured base on the integral of the calorimetric signal. The resultant binding isotherms were analyzed by a nonlinear least-squares fit of the experimental data to a single site model using Microcal Origin 7.0 software. Experiments were duplicated and variability estimated to be 5% in the binding
# Leucine--tRNA ligase = target: T1, Leucine--tRNA ligase (Candida albicans (strain WO-1), UniProt C4YL05)
# T1 sequence (C4YL05 whole entry): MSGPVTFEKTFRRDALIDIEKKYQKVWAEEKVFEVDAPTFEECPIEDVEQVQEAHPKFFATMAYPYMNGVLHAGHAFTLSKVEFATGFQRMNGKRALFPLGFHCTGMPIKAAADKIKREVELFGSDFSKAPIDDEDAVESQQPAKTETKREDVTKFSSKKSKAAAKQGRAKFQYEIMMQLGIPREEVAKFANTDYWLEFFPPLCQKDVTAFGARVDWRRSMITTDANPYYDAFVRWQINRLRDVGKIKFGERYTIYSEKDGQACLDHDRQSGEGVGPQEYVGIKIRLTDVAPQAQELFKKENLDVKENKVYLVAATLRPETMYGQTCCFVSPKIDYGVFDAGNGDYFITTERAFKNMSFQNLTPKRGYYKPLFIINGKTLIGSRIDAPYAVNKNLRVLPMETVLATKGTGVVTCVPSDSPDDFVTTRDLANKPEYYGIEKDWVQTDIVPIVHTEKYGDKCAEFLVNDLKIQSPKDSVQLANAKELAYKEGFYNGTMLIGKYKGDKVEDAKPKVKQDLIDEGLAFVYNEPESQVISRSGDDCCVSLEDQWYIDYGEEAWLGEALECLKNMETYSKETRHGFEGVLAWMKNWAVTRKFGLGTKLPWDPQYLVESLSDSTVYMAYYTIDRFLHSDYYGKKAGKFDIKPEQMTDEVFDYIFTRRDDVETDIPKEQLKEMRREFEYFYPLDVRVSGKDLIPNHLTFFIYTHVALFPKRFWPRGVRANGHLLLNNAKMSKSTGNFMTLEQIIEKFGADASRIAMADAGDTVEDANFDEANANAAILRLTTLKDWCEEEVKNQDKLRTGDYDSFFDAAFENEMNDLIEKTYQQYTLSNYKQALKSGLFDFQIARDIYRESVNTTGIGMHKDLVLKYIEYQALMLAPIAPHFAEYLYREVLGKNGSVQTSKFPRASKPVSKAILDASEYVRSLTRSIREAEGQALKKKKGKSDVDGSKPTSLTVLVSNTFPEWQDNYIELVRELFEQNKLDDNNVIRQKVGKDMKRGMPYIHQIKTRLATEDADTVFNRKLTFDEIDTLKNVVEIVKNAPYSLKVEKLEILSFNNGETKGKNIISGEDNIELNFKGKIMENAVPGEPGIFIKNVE
# Method: as §1
# [2] = target: Leucine--tRNA ligase [A132I,E138V,K510A,I952T] (Candida albicans (strain WO-1), UniProt A0A1D8PS12, A132I/E138V/I952T/K510A)
# Sequence of Leucine--tRNA ligase [A132I,E138V,K510A,I952T] (A0A1D8PS12 whole entry A132I/E138V/K510A/I952T): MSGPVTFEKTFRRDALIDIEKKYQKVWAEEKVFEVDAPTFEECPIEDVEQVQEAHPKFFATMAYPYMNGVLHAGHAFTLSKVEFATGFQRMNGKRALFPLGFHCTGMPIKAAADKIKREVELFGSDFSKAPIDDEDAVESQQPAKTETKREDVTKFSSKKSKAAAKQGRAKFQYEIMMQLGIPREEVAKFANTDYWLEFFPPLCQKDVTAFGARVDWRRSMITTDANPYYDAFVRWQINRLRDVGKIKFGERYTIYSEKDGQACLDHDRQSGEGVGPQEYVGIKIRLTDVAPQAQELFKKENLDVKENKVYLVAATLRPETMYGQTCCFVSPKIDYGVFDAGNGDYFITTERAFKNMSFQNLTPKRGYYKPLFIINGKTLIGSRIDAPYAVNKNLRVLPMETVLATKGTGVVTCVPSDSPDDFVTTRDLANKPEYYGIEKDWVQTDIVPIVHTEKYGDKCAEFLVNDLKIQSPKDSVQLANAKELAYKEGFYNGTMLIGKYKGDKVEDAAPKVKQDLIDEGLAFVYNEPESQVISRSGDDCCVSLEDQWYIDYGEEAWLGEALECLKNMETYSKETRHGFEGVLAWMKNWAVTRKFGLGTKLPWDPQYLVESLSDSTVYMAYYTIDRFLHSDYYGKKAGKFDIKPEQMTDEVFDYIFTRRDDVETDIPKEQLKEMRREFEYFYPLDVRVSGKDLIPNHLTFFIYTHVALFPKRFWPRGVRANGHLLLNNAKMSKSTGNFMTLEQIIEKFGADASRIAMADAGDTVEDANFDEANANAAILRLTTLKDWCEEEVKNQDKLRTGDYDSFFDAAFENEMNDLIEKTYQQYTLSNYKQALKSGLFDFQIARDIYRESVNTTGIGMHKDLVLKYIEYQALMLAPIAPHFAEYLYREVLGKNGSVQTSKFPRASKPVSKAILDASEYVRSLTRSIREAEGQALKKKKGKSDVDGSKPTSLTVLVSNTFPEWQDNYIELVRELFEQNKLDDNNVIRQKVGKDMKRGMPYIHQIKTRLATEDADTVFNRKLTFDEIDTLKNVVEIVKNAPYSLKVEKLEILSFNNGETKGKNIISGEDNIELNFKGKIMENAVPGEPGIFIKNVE
# Method: as §1
# Sequence of Leucine--tRNA ligase [A132I,E138V,K510E,I952T] (A0A1D8PS12 whole entry A132I/E138V/K510E/I952T, the tested form may be a part): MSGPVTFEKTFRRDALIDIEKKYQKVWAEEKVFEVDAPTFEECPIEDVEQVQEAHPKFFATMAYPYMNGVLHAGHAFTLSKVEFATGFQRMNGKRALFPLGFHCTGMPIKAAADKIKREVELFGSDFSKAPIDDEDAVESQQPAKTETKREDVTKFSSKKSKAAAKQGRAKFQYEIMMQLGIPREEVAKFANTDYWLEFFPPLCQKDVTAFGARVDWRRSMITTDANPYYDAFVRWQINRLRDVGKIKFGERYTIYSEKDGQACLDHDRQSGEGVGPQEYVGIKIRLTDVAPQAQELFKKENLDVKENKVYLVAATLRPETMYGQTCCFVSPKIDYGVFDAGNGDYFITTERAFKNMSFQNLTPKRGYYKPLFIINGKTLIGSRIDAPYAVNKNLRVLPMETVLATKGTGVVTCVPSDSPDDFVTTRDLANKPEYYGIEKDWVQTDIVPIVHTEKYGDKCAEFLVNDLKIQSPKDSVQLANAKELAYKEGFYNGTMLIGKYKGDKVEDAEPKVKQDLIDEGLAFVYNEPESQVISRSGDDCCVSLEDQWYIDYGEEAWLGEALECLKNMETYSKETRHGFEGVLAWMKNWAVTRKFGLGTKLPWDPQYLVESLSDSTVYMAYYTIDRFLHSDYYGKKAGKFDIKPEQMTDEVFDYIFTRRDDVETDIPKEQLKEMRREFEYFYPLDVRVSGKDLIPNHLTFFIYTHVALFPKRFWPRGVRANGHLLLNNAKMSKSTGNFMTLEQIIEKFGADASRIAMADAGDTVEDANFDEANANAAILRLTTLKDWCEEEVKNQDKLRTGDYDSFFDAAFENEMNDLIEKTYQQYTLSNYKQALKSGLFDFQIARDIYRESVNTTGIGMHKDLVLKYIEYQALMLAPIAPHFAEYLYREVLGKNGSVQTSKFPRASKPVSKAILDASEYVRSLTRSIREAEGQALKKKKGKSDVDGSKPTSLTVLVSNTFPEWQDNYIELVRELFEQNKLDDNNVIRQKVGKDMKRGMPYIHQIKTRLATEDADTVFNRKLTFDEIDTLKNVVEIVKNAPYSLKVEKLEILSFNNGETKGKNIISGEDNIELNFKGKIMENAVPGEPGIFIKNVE
compound,measurement,setting,value
CC[C@H]1O[C@@H](n2cnc3c(N)ncnc32)[C@H]2O[B-]3(OCc4cc(F)ccc43)OC12 (stereo partly drawn) [AN2690-AMP],Kd,[1],21 µM
same,Kd,Leucine--tRNA ligase,0.7 µM
same,Kd,[2],46 µM
